Measurements as given in patent publication EP4667467A1, “PROTAC DEGRADERS OF MLLT1 AND/OR MLLT3” (Dark Blue Therapeutics Ltd, priority 2024, dated 2025).

Molecular target: T1, MLLT1 (Homo sapiens, UniProt Q03111)
T1 construct: endogenous in cells; host or cells: MV4-11 (ATCC CRL-9591)
T1 sequence (Q03111 1-559): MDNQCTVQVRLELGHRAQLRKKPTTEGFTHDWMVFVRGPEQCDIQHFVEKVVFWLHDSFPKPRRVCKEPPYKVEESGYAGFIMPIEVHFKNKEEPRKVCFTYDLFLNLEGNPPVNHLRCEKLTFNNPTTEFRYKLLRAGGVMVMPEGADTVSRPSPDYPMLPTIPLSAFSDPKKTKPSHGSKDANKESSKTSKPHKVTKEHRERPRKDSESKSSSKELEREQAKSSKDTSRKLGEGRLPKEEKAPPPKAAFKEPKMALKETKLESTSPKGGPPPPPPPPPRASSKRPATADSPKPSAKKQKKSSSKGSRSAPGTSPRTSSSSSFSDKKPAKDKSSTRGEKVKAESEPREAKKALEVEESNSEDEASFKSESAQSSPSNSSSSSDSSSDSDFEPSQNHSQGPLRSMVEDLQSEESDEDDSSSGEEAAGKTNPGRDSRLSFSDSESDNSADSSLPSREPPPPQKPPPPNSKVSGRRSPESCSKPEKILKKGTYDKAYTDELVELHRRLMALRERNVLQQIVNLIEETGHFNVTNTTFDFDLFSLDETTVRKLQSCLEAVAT
Test: MLLT1 Degradation Assay (JESS automated chemiluminescent detection, MV4-11 cells)
Assay type: cell-based
Conditions: 24h, with respect to DMSO control; for MLLT1 % Degradation @ 0.01 µM: 0.01 µM (10 nM) test compound; for MLLT1 % Degradation @ 0.1 µM: 0.1 µM (100 nM) test compound; for MLLT 1 % Degradation @ 1 µM: 1 µM (1000 nM) test compound
In short: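 MV4-11 cells were treated for 24 h at 37 °C, 5% CO2 with compound at 1000, 100 and 10 nM (0.1% DMSO). MLLT1 was quantified by automated capillary chemiluminescent immunodetection (JESS). Band peak areas were expressed as % degradation relative to DMSO control.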

SMILES | MLLT1 % Degradation @ 0.01 µM | MLLT1 % Degradation @ 0.1 µM | MLLT 1 % Degradation @ 1 µM
CN1CCC[C@@H]1c1cc2cnc(NC(=O)c3ccc(OCC#Cc4cccc5c4n(C)c(=O)n5C4CCC(=O)NC4=O)cc3)cc2[nH]1 (stereo partly drawn) [Example 66, 4-((3-(1-(2,6-dioxopiperidin-3-yl)-3-methyl-2-oxo-2,3-dihydro-1H-benzo[d]imidazol-4-yl)prop-2-yn-1-yl)oxy)-N-(2-((R)-1-methylpyrrolidin-2-yl)-1H-pyrrolo[3,2-c]pyridin-6-yl)benzamide] | A (Category A: A ≥ 75% degradation) | A (Category A: A ≥ 75% degradation) | A (Category A: A ≥ 75% degradation)
CN1CCC[C@@H]1c1cc2cnc(NC(=O)c3ccc(-c4cnn(CCCC5CCN(c6cccc(C(=O)N[C@H]7CCC(=O)NC7=O)n6)CC5)c4)cc3)cc2[nH]1 [Example 60, N-((S)-2,6-dioxopiperidin-3-yl)-6-(4-(3-(4-(4-((2-((R)-1-methylpyrrolidin-2-yl)-1H-pyrrolo[3,2-c]pyridin-6-yl)carbamoyl)phenyl)-1H-pyrazol-1-yl)propyl)piperidin-1-yl)picolinamide] | A (Category A: A ≥ 75% degradation) | A (Category A: A ≥ 75% degradation) | A (Category A: A ≥ 75% degradation)
CN1CCCC1c1cc2cnc(NC(=O)c3ccc(OCC#Cc4cccc5c4CN(C4CCC(=O)NC4=O)C5=O)cn3)cc2[nH]1 (centres unmarked) [Example 50, 5-[3-[2-(2,6-dioxo-3-piperidyl)-1-oxo-isoindolin-4-yl]prop-2-ynoxy]-N-[2-(1-methylpyrrolidin-2-yl)-1H-pyrrolo[3,2-c]pyridin-6-yl]pyridine-2-carboxamide] | B (Category B: 50% ≤ B < 75% degradation) | B (Category B: 50% ≤ B < 75% degradation) | B (Category B: 50% ≤ B < 75% degradation)
CN1CCC[C@@H]1c1cc2cnc(NC(=O)c3ccc(CCCC#Cc4cccc(N5CCC(=O)NC5=O)n4)cc3)cc2[nH]1 [Example 63, (R)-4-(5-(6-(2,4-dioxotetrahydropyrimidin-1(2H)-yl)pyridin-2-yl)pent-4-yn-1-yl)-N-(2-(1-methylpyrrolidin-2-yl)-1H-pyrrolo[3,2-c]pyridin-6-yl)benzamide] | D (Category D: D < 25% degradation) | D (Category D: D < 25% degradation) | C (Category C: 25% ≤ C < 50% degradation)
CN1CCC[C@@H]1c1cc2cnc(NC(=O)CCCCCCNc3cccc4c3C(=O)N(C3CCC(=O)NC3=O)C4=O)cc2[nH]1 (stereo partly drawn) [Example 29, 7-{[2-(2,6-dioxopiperidin-3-yl)-1,3-dioxoisoindol-4-yl]amino}-N-{2-[(2R)-1-methylpyrrolidin-2-yl]-1H-pyrrolo[3,2-c]pyridin-6-yl}heptanamide] | D (Category D: D < 25% degradation) | C (Category C: 25% ≤ C < 50% degradation) | A (Category A: A ≥ 75% degradation)
C[C@@H](C#Cc1cccc2c1CN(C1CCC(=O)NC1=O)C2=O)Oc1ccc(C(=O)Nc2cc3[nH]c([C@H]4CCCN4C)cc3cn2)cc1 (stereo partly drawn) [Example 24, 4-(((2S)-4-(2-(2,6-dioxopiperidin-3-yl)-1-oxoisoindolin-4-yl)but-3-yn-2-yl)oxy)-N-(2-((R)-1-methylpyrrolidin-2-yl)-1H-pyrrolo[3,2-c]pyridin-6-yl)benzamide] | A (Category A: A ≥ 75% degradation) | A (Category A: A ≥ 75% degradation) | A (Category A: A ≥ 75% degradation)
CN1CCC[C@@H]1c1cc2cnc(NC(=O)c3ccc(N4CCC(C#Cc5cccc6c5CN(C5CCC(=O)NC5=O)C6=O)CC4)nc3)cc2[nH]1 (stereo partly drawn) [Example 17, 6-(4-((2-(2,6-dioxopiperidin-3-yl)-1-oxoisoindolin-4-yl)ethynyl)piperidin-1-yl)-N-(2-((R)-1-methylpyrrolidin-2-yl)-1H-pyrrolo[3,2-c]pyridin-6-yl)nicotinamide] | A (Category A: A ≥ 75% degradation) | A (Category A: A ≥ 75% degradation) | A (Category A: A ≥ 75% degradation)
CN1CCC[C@@H]1c1cc2cnc(NC(=O)c3ccc(OCC#Cc4cccc5c4CN(C4CCC(=O)NC4=O)C5=O)cc3F)cc2[nH]1 (stereo partly drawn) [Example 57, 4-((3-(2-(2,6-dioxopiperidin-3-yl)-1-oxoisoindolin-4-yl)prop-2-yn-1-yl)oxy)-2-fluoro-N-(2-((R)-1-methylpyrrolidin-2-yl)-1H-pyrrolo[3,2-c]pyridin-6-yl)benzamide] | A (Category A: A ≥ 75% degradation) | A (Category A: A ≥ 75% degradation) | A (Category A: A ≥ 75% degradation)
CN1CCC[C@@H]1c1cc2cnc(NC(=O)c3ccc(CCCC#Cc4cccc5c4CN(C4CCC(=O)NC4=O)C5=O)cc3)cc2[nH]1 (stereo partly drawn) [Example 55, 4-(5-(2-(2,6-dioxopiperidin-3-yl)-1-oxoisoindolin-4-yl)pent-4-yn-1-yl)-N-(2-((R)-1-methylpyrrolidin-2-yl)-1H-pyrrolo[3,2-c]pyridin-6-yl)benzamide] | A (Category A: A ≥ 75% degradation) | A (Category A: A ≥ 75% degradation) | A (Category A: A ≥ 75% degradation)
CN1CCC[C@@H]1c1cc2cnc(NC(=O)c3ccc(N4CCC(C5CCN(c6cccc7c6CN(C6CCC(=O)NC6=O)C7=O)CC5)CC4)nc3)cc2[nH]1 (stereo partly drawn) [Example 75, 6-(1'-(2-(2,6-dioxopiperidin-3-yl)-1-oxoisoindolin-4-yl)-[4,4'-bipiperidin]-1-yl)-N-(2-((R)-1-methylpyrrolidin-2-yl)-1H-pyrrolo[3,2-c]pyridin-6-yl)nicotinamide] | A (Category A: A ≥ 75% degradation) | A (Category A: A ≥ 75% degradation) | A (Category A: A ≥ 75% degradation)
CN1CCC[C@@H]1c1cc2cnc(NC(=O)c3ccc(CCCCC#Cc4cccc(N5CCC(=O)NC5=O)n4)cc3)cc2[nH]1 [Example 9, (R)-4-(6-(6-(2,4-dioxotetrahydropyrimidin-1(2H)-yl)pyridin-2-yl)hex-5-yn-1-yl)-N-(2-(1-methylpyrrolidin-2-yl)-1H-pyrrolo[3,2-c]pyridin-6-yl)benzamide] | A (Category A: A ≥ 75% degradation) | A (Category A: A ≥ 75% degradation) | A (Category A: A ≥ 75% degradation)
CN1CCC[C@@H]1c1cc2cnc(NC(=O)c3cnn(CCCC4CCN(c5cccc6c5C(=O)N(C5CCC(=O)NC5=O)C6=O)CC4)c3)cc2[nH]1 (stereo partly drawn) [Example 38, 1-(3-{1-[2-(2,6-dioxopiperidin-3-yl)-1,3-dioxoisoindol-4-yl]piperidin-4-yl}propyl)-N-{2-[(2R)-1-methylpyrrolidin-2-yl]-1H-pyrrolo[3,2-c]pyridin-6-yl}pyrazole-4-carboxamide] | D (Category D: D < 25% degradation) | D (Category D: D < 25% degradation) | C (Category C: 25% ≤ C < 50% degradation)
CN1CCC[C@@H]1c1cc2cnc(NC(=O)c3ccc(N4CCC(OCC5CCN(c6cccc7c6C(=O)N(C6CCC(=O)NC6=O)C7=O)CC5)CC4)nc3)cc2[nH]1 (stereo partly drawn) [Example 18, 6-(4-((1-(2-(2,6-dioxopiperidin-3-yl)-1,3-dioxoisoindolin-4-yl)piperidin-4-yl)methoxy)piperidin-1-yl)-N-(2-((R)-1-methylpyrrolidin-2-yl)-1H-pyrrolo[3,2-c]pyridin-6-yl)nicotinamide] | B (Category B: 50% ≤ B < 75% degradation) | A (Category A: A ≥ 75% degradation) | A (Category A: A ≥ 75% degradation)
CN1CCC[C@@H]1c1cc2cnc(NC(=O)CCCC3CCCN(c4cccc5c4C(=O)N(C4CCC(=O)NC4=O)C5=O)C3)cc2[nH]1 (stereo partly drawn) [Example 44, 4-(1-(2-(2,6-dioxopiperidin-3-yl)-1,3-dioxoisoindolin-4-yl)piperidin-3-yl)-N-(2-((R)-1-methylpyrrolidin-2-yl)-1H-pyrrolo[3,2-c]pyridin-6-yl)butanamide] | – | C (Category C: 25% ≤ C < 50% degradation) | C (Category C: 25% ≤ C < 50% degradation)
